Laboratory results reported in patent publication US8834862B2, “Methods, compositions and devices utilizing stinging cells/capsules for conditioning a tissue prior to delivery of an active agent” (NanoCyte Inc., priority 2005, dated 2014).

Test system: blood glucose
Experiment: Insulin delivery by aiptasia stinging capsule gel, blood glucose in nude mice
Assay type: in vivo
Conditions: topical aiptasia stinging capsule gel plus Humolin, blood glucose at 0, 30, 60 and 90 minutes after gel activation, FIG. 3
Procedure: The potential of the stinging capsule patch to deliver an agent (insulin) into the blood stream was tested with aiptasia capsules.
Materials—Commercial Insulin—Humolin of EliLilly was tested. Unless otherwise noted, all chemicals were purchased from Sigma (Aldrich).
Animals—6-9 week old nude mice each weighing 20-30 gr were used.
Insulin Delivery—Mice were topically applied with the aiptasia stinging capsule gel and Humolin. A few microlitres of blood were drawn from the tail tip prior to insulin application (time 0) and thirty minutes, sixty minutes and ninety minutes following gel activation. Blood glucose concentration was measured using a human glucometer.
In parallel, and as a positive control, mice were subcutaneously injected with Humolin.

In the case of insulin, the “insulin delivery / blood glucose regulation compared with subcutaneous injection” value is reported as “in a similar manner as subcutaneous injection”.
